#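 Test compounds were applied to cells in 96-well plates for 48 hours at 5 doses. GI50: concentration for 50% inhibition of growth.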 The source made the active and inactive calls. Rule as the data show it: active = GI50 up to about 1.1 µM and inactive = higher.
# Columns and labels:
# Test in all cases: growth of human tumour cells (NCI), 48 h
# A498 = tested on: A498
# Hs-578T = tested on: Hs-578T
# DU-145 = tested on: DU-145
# T47D = tested on: T47D
# SK-MEL-5 = tested on: SK-MEL-5
# MOLT-4 = tested on: MOLT-4
# ACHN = tested on: ACHN
# MDA-MB-231 = tested on: MDA-MB-231
# BT-549 = tested on: BT-549
# UO-31 = tested on: UO-31
# LOX IMVI = tested on: LOX IMVI
# HCT-116 = tested on: HCT-116
# SF-295 = tested on: SF-295
# HL-60 = tested on: HL-60
# SF-268 = tested on: SF-268
# 786-0 = tested on: 786-0
# K562 = tested on: K562
# RPMI-8226 = tested on: RPMI-8226
# MDA-N = tested on: MDA-N
# CCRF-CEM = tested on: CCRF-CEM
# NCI-H460 = tested on: NCI-H460
# SN12C = tested on: SN12C
# PC-3 = tested on: PC-3
# SK-MEL-2 = tested on: SK-MEL-2
# SF-539 = tested on: SF-539
# CAKI-1 = tested on: CAKI-1
# SK-MEL-28 = tested on: SK-MEL-28
# TK-10 = tested on: TK-10
# HCC 2998 = tested on: HCC 2998
# OVCAR-5 = tested on: OVCAR-5
# MCF7 = tested on: MCF7
# SNB-19 = tested on: SNB-19
# M14 = tested on: M14
# SR = tested on: SR
# EKVX = tested on: EKVX
# NCI-H522 = tested on: NCI-H522
# NCI/ADR-RES = tested on: NCI/ADR-RES
# HCT-15 = tested on: HCT-15
# NCI-H23 = tested on: NCI-H23
# NCI-H226 = tested on: NCI-H226
# SNB-75 = tested on: SNB-75
# HOP-62 = tested on: HOP-62
# HT-29 = tested on: HT-29
# A549 = tested on: A549
# MDA-MB-435 = tested on: MDA-MB-435
# HOP-92 = tested on: HOP-92
# UACC-257 = tested on: UACC-257
# KM12 = tested on: KM12
# SW-620 = tested on: SW-620
# UACC-62 = tested on: UACC-62
# COLO 205 = tested on: COLO 205
# SK-OV-3 = tested on: SK-OV-3
# U-251 = tested on: U-251
# RXF 393 = tested on: RXF 393
# OVCAR-3 = tested on: OVCAR-3
# IGROV-1 = tested on: IGROV-1
smiles,measurement,setting,value
O=C(CCc1ccc(O)c(O)c1)NCCc1cc(O)cc(OCc2ccccc2)c1,GI50,A498,> 100 µM (inactive)
same,GI50,Hs-578T,45.9 µM (inactive)
same,GI50,DU-145,43.3 µM (inactive)
same,GI50,T47D,15.3 µM (inactive)
same,GI50,SK-MEL-5,13.5 µM (inactive)
same,GI50,MOLT-4,14 µM (inactive)
same,GI50,ACHN,8.75 µM (inactive)
same,GI50,MDA-MB-231,27.2 µM (inactive)
same,GI50,BT-549,10.6 µM (inactive)
same,GI50,UO-31,4.69 µM (inactive)
same,GI50,LOX IMVI,26.3 µM (inactive)
same,GI50,HCT-116,33.5 µM (inactive)
same,GI50,SF-295,46.7 µM (inactive)
same,GI50,HL-60,10.9 µM (inactive)
same,GI50,SF-268,31.4 µM (inactive)
same,GI50,786-0,45.7 µM (inactive)
same,GI50,K562,37 µM (inactive)
same,GI50,RPMI-8226,9.04 µM (inactive)
same,GI50,MDA-N,19.5 µM (inactive)
same,GI50,CCRF-CEM,6.87 µM (inactive)
same,GI50,NCI-H460,22.2 µM (inactive)
same,GI50,SN12C,24.9 µM (inactive)
same,GI50,PC-3,31.9 µM (inactive)
same,GI50,SK-MEL-2,43.1 µM (inactive)
same,GI50,SF-539,27.2 µM (inactive)
same,GI50,CAKI-1,12.6 µM (inactive)
same,GI50,SK-MEL-28,44.3 µM (inactive)
same,GI50,TK-10,> 100 µM (inactive)
same,GI50,HCC 2998,17.1 µM (inactive)
same,GI50,OVCAR-5,87.9 µM (inactive)
same,GI50,MCF7,26.9 µM (inactive)
same,GI50,SNB-19,6.22 µM (inactive)
same,GI50,M14,32.1 µM (inactive)
same,GI50,SR,21.1 µM (inactive)
same,GI50,EKVX,53.5 µM (inactive)
same,GI50,NCI-H522,5.14 µM (inactive)
same,GI50,NCI/ADR-RES,43.5 µM (inactive)
same,GI50,HCT-15,11.6 µM
same,GI50,NCI-H23,21.6 µM (inactive)
same,GI50,NCI-H226,58.7 µM (inactive)
same,GI50,SNB-75,15.6 µM (inactive)
same,GI50,HOP-62,61.1 µM (inactive)
same,GI50,HT-29,38.9 µM (inactive)
same,GI50,A549,52.6 µM (inactive)
same,GI50,MDA-MB-435,27.2 µM (inactive)
same,GI50,HOP-92,36.5 µM (inactive)
same,GI50,UACC-257,> 100 µM (inactive)
same,GI50,KM12,29.7 µM (inactive)
same,GI50,SW-620,25.9 µM (inactive)
same,GI50,UACC-62,31.3 µM (inactive)
same,GI50,COLO 205,20.6 µM (inactive)
same,GI50,SK-OV-3,28.7 µM (inactive)
same,GI50,U-251,26.6 µM (inactive)
same,GI50,RXF 393,83.4 µM (inactive)
same,GI50,OVCAR-3,35.8 µM (inactive)
same,GI50,IGROV-1,39.1 µM (inactive)

# Reference: ChEMBL document CHEMBL1201862, “PubChem BioAssay data set” (2004)
